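Cells were grown in 96-well plates and exposed to each compound for 48 hours at five concentrations; endpoints were interpolated linearly between bracketing concentrations, or set to the highest concentration if not reached. Here, GI50 denotes the concentration required for 50% inhibition of growth. TGI: concentration producing complete growth inhibition.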
Columns and labels:
Assay in all cases: growth of human tumour cells (NCI), 48 h
U251 CNS = tested on: U251 CNS
K-562 leukemia = tested on: K-562 leukemia
OVCAR-3 ovarian = tested on: OVCAR-3 ovarian
CAKI-1 renal = tested on: CAKI-1 renal
UO-31 renal = tested on: UO-31 renal
MDA-MB-231 breast = tested on: MDA-MB-231 breast
HS 578T breast = tested on: HS 578T breast
MDA-MB-435 = tested on: MDA-MB-435
PC-3 prostate = tested on: PC-3 prostate
M14 melanoma = tested on: M14 melanoma

SMILES	GI50 (U251 CNS) [µM]	TGI (U251 CNS) [µM]	GI50 (K-562 leukemia) [µM]	TGI (K-562 leukemia) [µM]	GI50 (OVCAR-3 ovarian) [µM]	TGI (OVCAR-3 ovarian) [µM]	TGI (CAKI-1 renal) [µM]	GI50 (UO-31 renal) [µM]	TGI (UO-31 renal) [µM]	GI50 (MDA-MB-231 breast) [µM]	TGI (MDA-MB-231 breast) [µM]	GI50 (HS 578T breast) [µM]	TGI (HS 578T breast) [µM]	GI50 (MDA-MB-435) [µM]	TGI (MDA-MB-435) [µM]	GI50 (PC-3 prostate) [µM]	TGI (PC-3 prostate) [µM]	GI50 (M14 melanoma) [µM]	TGI (M14 melanoma) [µM]	GI50 (CAKI-1 renal) [µM]
CN(CCO)CC[C@H](CSc1ccccc1)Nc1ccc(S(=O)(=O)NC(=O)c2ccc(N3CCC([C@@H](O)c4ccccc4-c4ccc(Cl)cc4)CC3)cc2)cc1S(=O)(=O)C(F)(F)F	2.82	8.88	3.4	> 100	3.71	13	> 29.2	> 100	> 100	0.235	0.936	2.23	7.27	2.31	6.51	2.51	9.05	3.51	20.2	–
CSC(=Nc1nnc(-c2ccc([N+](=O)[O-])cc2)s1)SC	–	58.1	–	> 100	–	> 89.7	38.4	–	71.5	–	> 100	–	> 81.8	–	> 100	–	> 100	–	> 100	–
Cc1c[n+](=O)c2ccccc2n1[O-]	–	> 100	–	> 100	–	> 100	> 100	–	> 100	–	> 100	–	> 100	–	> 100	–	> 100	–	> 100	–
COc1ccc(-c2nn(-c3cccc(Cl)c3)cc2-c2cc(-c3cccs3)[nH]c(=S)n2)cc1	2.6	12.4	2.91	> 100	3.04	9.42	8.68	2.82	26.5	3.52	26	4.26	> 100	3.13	19	3.09	> 100	2.81	14	3.03
CCN1C(=O)N(CC)C2C1NN=c1s/c(=C\c3cccc(F)c3)c(=O)n12 (centres undefined)	0.21	> 100	0.041	> 100	0.17	> 100	> 100	0.96	> 100	0.405	> 100	0.0899	> 100	0.0271	0.0833	0.185	> 100	0.0727	> 100	0.0711
CCN(Cc1ccc(Cl)cc1)c1ccc(CO)c(Cl)c1	0.863	13	1.87	> 45.5	1.15	5.75	7.45	2.18	13.5	4.95	20.3	6.09	31.5	11	24.5	11.5	27.7	4.43	20.2	0.563
